Converted amounts (≈) assume the structure as drawn. Bridge positions count the residues as written; N and C are the ends. Square brackets hold non-standard residues; d marks the D form. Ends that are not written are not given here. Peptide text beside a SMILES is read from it. Nle = CCCC[C@H](N)C(=O)O; Orn = NCCC[C@H](N)C(=O)O
Legend:
Assay type in all cases: cell-based
[1] = tested on: E. faecalis; assay: killing of bacteria at fixed peptide concentration, E. faecalis (Example 12); settings: peptide 25 μg/ml
Experimental: (§1) In this example, the peptides according to the invention were used to study the effect on the killing of different bacteria.
(§2) The peptides were used at a concentration of 25 μg/ml.

[2] = tested on: K. pneumoniae; assay: killing of bacteria at fixed peptide concentration, K. pneumoniae (Example 12); settings: peptide 25 μg/ml
Experimental: as §1, §2

[3] = tested on: C. albicans (ATCC64549); settings: for MIC: ATCC64549; for MMC99%: C. albicans, tested at 1, 10, 25 and 100 μg/ml of peptide
Experimental: (§3) In the examples, the minimal microbicidal concentrations (MMC) and minimal inhibitory concentrations (MIC) were determined as follows, unless otherwise specified in the examples. Bacterial or fungal strains were cultured in BHI medium over night at 37° C. A volume of the culture was transferred to a new tube with BHI and incubated for two more hours. Thereafter the cells were spun down and the pellet was suspended in BHI medium diluted 1/100 (1% BHI). The concentration of bacterial or fungal cells was spectrophotometrically determined at 650 nm. The microbial concentrations were also determined by viable counts. Peptides serially diluted in 1% BHI by twofold or tenfold steps were added in triplicate to the wells of a microtiterplate (200 μl per well). The bacterial or fungal cell solutions were added in 10 μl volumes to give a final concentration of approximately 1-5×10^5 cells per ml in the well. The microplate was incubated at 37° C. in a humid chamber for two hours. Thereafter 5 μl was taken from each well and added as a drop onto a blood agar plate and incubated over night at 37° C. The microplate was incubated for another 20 hours at 37° C. and thereafter analysed spectrophotometrically at 650 nm in a microplate reader (Emax, Molecular Devices, USA). The concentration of peptide causing a 99% reduction of the inoculum after 2 hours of incubation was defined as the MMC99%. The MIC value was defined as the concentration giving no increase in the absorbance value above the background level after 20 hours of incubation.
(§4) C. albicans (ATCC64549) and E. coli O6, respectively, were incubated with the different peptides. The experiments were performed with 1, 10, 25 and 100 μg/ml of peptide.

[4] = tested on: E. coli O6; settings: for MMC99%: E. coli O6, tested at 1, 10, 25 and 100 μg/ml of peptide; for MIC: O6
Experimental: as §3, §4

[5] = tested on: P. aeruginosa; assay: killing of bacteria at fixed peptide concentration, P. aeruginosa (Example 12); settings: peptide 25 μg/ml
Experimental: as §1, §2

[6] = tested on: S. epidermis; assay: killing of bacteria at fixed peptide concentration, S. epidermis (Example 12); settings: peptide 25 μg/ml
Experimental: as §1, §2

[7] = tested on: S. aureus; assay: killing of bacteria at fixed peptide concentration, S. aureus (Example 12); settings: peptide 25 μg/ml
Experimental: as §1, §2

[8] = tested on: C. albicans yeast cells (ATCC64549); assay: killing and growth inhibition of C. albicans at pH 4.5 (Example 11); design: key to C. albicans inhibition (OD650): + = no increase in OD650 is seen; − = OD650 continues to increase; settings: pH 4.5, 1% BHI, 25 μg/ml of the peptide; for C. albicans inhibition (OD650): OD650 after an additional 18 hours; for C. albicans killing: 99% / C. albicans killing: 100%: 2 hours
Experimental: C. albicans yeast cells (ATCC64549) were incubated for 2 hours at pH 4.5 in BHI medium diluted to 1% of the original concentration containing 25 µg/ml of the peptide. Thereafter the fungal solutions were cultured on blood agar plates. OD650 was measured after incubation during an additional 18 hours. The fungicidal effect of the peptides on C. albicans was determined as the ability of the peptide to kill 100% and 99%, respectively, of the fungus, while the growth inhibitory effect was determined by measuring the OD650. An inhibitory effect existed when no increase in OD650 was recorded.

[9] = tested on: C. albicans; assay: MMC99% of modified peptides, C. albicans (Example 25); settings: BHI diluted 1/100, pH approximately 6.7-6.9 (Table 21)
Experimental: as §3
(§5) In this example the fungicidal, and bactericidal effects of the different peptides obtained in examples 18-21 were studied. C. albicans, E. coli and S. aureus, respectively, were incubated in BHI medium diluted 1/100, with a pH of approximately 6.7-6.9. The concentration of each peptide needed to kill 99% of the microorganisms (MMC99%) was determined.

[10] = tested on: S. aureus; assay: MMC99% of modified peptides, S. aureus (Example 25); settings: BHI diluted 1/100, pH approximately 6.7-6.9 (Table 21)
Experimental: as §3, §5

[11] = tested on: E. coli; assay: MMC99% of modified peptides, E. coli (Example 25); settings: BHI diluted 1/100, pH approximately 6.7-6.9 (Table 21)
Experimental: as §3, §5

CSCC[C@@H]1NC(=O)[C@@H](NC(=O)[C@H](CCCNC(=N)N)NC(=O)[C@@H]2CC(=O)NCCCC[C@H](NC(=O)[C@H](CCCCN)NC(=O)[C@@H](NC(C)=O)[C@@H](C)O)C(=O)N[C@@H](Cc3ccccc3)C(=O)N[C@@H](CCC(N)=O)C(=O)N[C@@H](Cc3c[nH]c4ccccc34)C(=O)N2)CCCCNC(=O)C[C@@H](C(=O)N[C@@H](CCCNC(=N)N)C(N)=O)NC(=O)[C@H](CCCCN)NC(=O)[C@H](CCCNC(=N)N)NC1=O [Peptide 61] (Ac-TKKFQWDRKMRKDR-NH2; lactam 3-7, 9-13; N-terminus and C-terminus assumed)
killing of bacteria: E. faecalis [1]: + (+ = 99% of the bacteria are killed)
killing of bacteria: K. pneumoniae [2]: + (+ = 99% of the bacteria are killed)
MIC [3]: 10 µg/mL (≈ 5.19 µM)
MMC99% [3]: 10 µg/mL
MMC99% [4]: 10 µg/mL
MIC [4]: 10 µg/mL (≈ 5.19 µM)
killing of bacteria: P. aeruginosa [5]: + (+ = 99% of the bacteria are killed)
killing of bacteria: S. epidermis [6]: + (+ = 99% of the bacteria are killed)
killing of bacteria: S. aureus [7]: + (+ = 99% of the bacteria are killed)
C. albicans inhibition (OD650) [8]: +
C. albicans killing: 99% [8]: + (+ = 100/99% of the bacteria are killed)
C. albicans killing: 100% [8]: − (− = less than 100/99% of the bacteria are killed)

A-F-Q-W-Q-R-N-M-R-K-V-R (AFQWQRNMRKVR) [SEQ. ID. NO. 68]
MMC99% [9]: 12
MMC99% [10]: 28
MMC99% [11]: >25

Ac-ATKCFQWQRNMRKVR-NH2 (N-terminus and C-terminus assumed) [Peptide 63]
MIC [3]: 10 µg/mL
MMC99% [3]: 10 µg/mL
MMC99% [4]: 10 µg/mL
MIC [4]: 10 µg/mL

Ac-PEATKCFQWQRNMRKVR-NH2 (N-terminus and C-terminus assumed) [Peptide 67]
MIC [3]: 10 µg/mL
MMC99% [3]: 10 µg/mL
MMC99% [4]: 10 µg/mL
MIC [4]: 10 µg/mL

Ac-TKAFKWQRDMRKVR-NH2 (N-terminus and C-terminus assumed) [Peptide 53]
MIC [3]: 10 µg/mL
MMC99% [3]: 10 µg/mL
MMC99% [4]: 10 µg/mL
MIC [4]: 10 µg/mL

C-A-Q-W-Q-R-N-M-R-K-V-R (CAQWQRNMRKVR) [SEQ. ID. NO. 69]
MMC99% [9]: 12
MMC99% [10]: 14
MMC99% [11]: 12

C-F-A-W-Q-R-N-M-R-K-V-R (CFAWQRNMRKVR) [SEQ. ID. NO. 70]
MMC99% [9]: 6
MMC99% [10]: 7
MMC99% [11]: 6

C-F-Q-A-Q-R-N-M-R-K-V-R (CFQAQRNMRKVR) [SEQ. ID. NO. 71]
MMC99% [9]: 12
MMC99% [10]: 14
MMC99% [11]: 25

C-F-Q-L-Q-R-N-M-R-K-V-R (CFQLQRNMRKVR) [SEQ. ID. NO. 80]
MMC99% [9]: 6
MMC99% [10]: 7
MMC99% [11]: 12

C-F-Q-W-A-R-N-M-R-K-V-R (CFQWARNMRKVR) [SEQ. ID. NO. 72]
MMC99% [9]: 12
MMC99% [10]: 7
MMC99% [11]: 12

C-F-Q-W-E-R-N-M-R-K-V-R (CFQWERNMRKVR) [SEQ. ID. NO. 84]
MMC99% [9]: 12
MMC99% [10]: 14
MMC99% [11]: 25

C-F-Q-W-Q-A-N-M-R-K-V-R (CFQWQANMRKVR) [SEQ. ID. NO. 73]
MMC99% [9]: 12
MMC99% [10]: 7
MMC99% [11]: 12

C-F-Q-W-Q-E-N-M-R-K-V-R (CFQWQENMRKVR) [SEQ. ID. NO. 85]
MMC99% [9]: >50
MMC99% [10]: >28
MMC99% [11]: >25

C-F-Q-W-Q-K-N-M-R-K-V-R (CFQWQKNMRKVR) [SEQ. ID. NO. 81]
MMC99% [9]: 6
MMC99% [10]: 7
MMC99% [11]: 6

C-F-Q-W-Q-R-A-M-R-K-V-R (CFQWQRAMRKVR) [SEQ. ID. NO. 74]
MMC99% [9]: 6
MMC99% [10]: 3.5
MMC99% [11]: 6

C-F-Q-W-Q-R-E-M-R-K-V-R (CFQWQREMRKVR) [SEQ. ID. NO. 86]
MMC99% [9]: 25
MMC99% [10]: 14
MMC99% [11]: 25

C-F-Q-W-Q-R-N-A-R-K-V-R (CFQWQRNARKVR) [SEQ. ID. NO. 75]
MMC99% [9]: 25
MMC99% [10]: 7
MMC99% [11]: 12

C-F-Q-W-Q-R-N-L-R-K-V-R (CFQWQRNLRKVR) [SEQ. ID. NO. 82]
MMC99% [9]: 6
MMC99% [10]: 7
MMC99% [11]: 12

C-F-Q-W-Q-R-N-M-A-K-V-R (CFQWQRNMAKVR) [SEQ. ID. NO. 76]
MMC99% [9]: 25
MMC99% [10]: 7
MMC99% [11]: 25

C-F-Q-W-Q-R-N-M-K-K-V-R (CFQWQRNMKKVR) [SEQ. ID. NO. 83]
MMC99% [9]: 6
MMC99% [10]: 7
MMC99% [11]: 6

C-F-Q-W-Q-R-N-M-R-A-V-R (CFQWQRNMRAVR) [SEQ. ID. NO. 77]
MMC99% [9]: 25
MMC99% [10]: 7
MMC99% [11]: 12

C-F-Q-W-Q-R-N-M-R-K-A-R (CFQWQRNMRKAR) [SEQ. ID. NO. 78]
MMC99% [9]: 25
MMC99% [10]: 7
MMC99% [11]: 12

C-F-Q-W-Q-R-N-M-R-K-V-A (CFQWQRNMRKVA) [SEQ. ID. NO. 79]
MMC99% [9]: 25
MMC99% [10]: 7
MMC99% [11]: 12

C-F-Q-W-Q-R-Nle-M-R-K-V-R (CFQWQR[Nle]MRKVR) [SEQ. ID. NO. 90]
MMC99% [9]: 12
MMC99% [10]: 3.5
MMC99% [11]: 12

C-F-Q-W-Q-R-Orn-M-R-K-V-R (CFQWQR[Orn]MRKVR) [SEQ. ID. NO. 89]
MMC99% [9]: 6
MMC99% [10]: 3.5
MMC99% [11]: 6

Peptide 6: SEQ. ID. NO. 1 with X1 none, X2 none, X5 A, X7 K, X11 D, X17-25 none; 14 residues (Ac-TKAFKWQRDMRKVR)
killing of bacteria: E. faecalis [1]: + (+ = 99% of the bacteria are killed)
killing of bacteria: K. pneumoniae [2]: + (+ = 99% of the bacteria are killed)
killing of bacteria: P. aeruginosa [5]: + (+ = 99% of the bacteria are killed)
killing of bacteria: S. epidermis [6]: + (+ = 99% of the bacteria are killed)
killing of bacteria: S. aureus [7]: + (+ = 99% of the bacteria are killed)
C. albicans inhibition (OD650) [8]: −
C. albicans killing: 99% [8]: + (+ = 100/99% of the bacteria are killed)
C. albicans killing: 100% [8]: − (− = less than 100/99% of the bacteria are killed)

Peptide 62: third embodiment, comprises a cysteine; sequence only in sequence listing (ATKCFQWQRNMRKVR)
killing of bacteria: E. faecalis [1]: + (+ = 99% of the bacteria are killed)
killing of bacteria: K. pneumoniae [2]: + (+ = 99% of the bacteria are killed)
killing of bacteria: P. aeruginosa [5]: + (+ = 99% of the bacteria are killed)
killing of bacteria: S. epidermis [6]: + (+ = 99% of the bacteria are killed)
killing of bacteria: S. aureus [7]: + (+ = 99% of the bacteria are killed)
C. albicans inhibition (OD650) [8]: +
C. albicans killing: 99% [8]: + (+ = 100/99% of the bacteria are killed)
C. albicans killing: 100% [8]: − (− = less than 100/99% of the bacteria are killed)

Peptide 66: third embodiment, comprises a cysteine; sequence only in sequence listing (PEATKCFQWQRNMRKVR)
killing of bacteria: E. faecalis [1]: + (+ = 99% of the bacteria are killed)
killing of bacteria: K. pneumoniae [2]: − (− = less than 99% of the bacteria are killed)
killing of bacteria: P. aeruginosa [5]: − (− = less than 99% of the bacteria are killed)
killing of bacteria: S. epidermis [6]: + (+ = 99% of the bacteria are killed)
killing of bacteria: S. aureus [7]: + (+ = 99% of the bacteria are killed)
C. albicans inhibition (OD650) [8]: +
C. albicans killing: 99% [8]: + (+ = 100/99% of the bacteria are killed)
C. albicans killing: 100% [8]: − (− = less than 100/99% of the bacteria are killed)

Reference: US7803757B2, “Peptides based on the sequence of human lactoferrin and their use” (PharmaSurgics in Sweden AB, priority 1998, dated 2010)
